Drawing on ChEMBL document CHEMBL1153350, “Synthesis of actin-depolymerizing compounds” (Bioorg Med Chem Lett, 2009), this text covers IC50 for 5 compounds.

As usually defined, the IC50 is the concentration needed to halve the response being measured. Low readings indicate higher potency, high ones lower potency.

The nature of assay [1]: Cytotoxicity against human HeLaS3 cells. The format is functional, cell-based. The settings on record: HeLa S3.
Assay [2] can be described thus: Inhibition of F-actin depolymerization.

Consider `CC(=O)O[C@@H]([C@@H](C)[C@@H](CC[C@H](C)[C@H](O)[C@H](C)[C@@H](O)CCO)OC(=O)[C@H](C)N(C)C)[C@H](C)/C=C/N(C)C=O`, for which the results for the half-inhibitory concentration (IC50) in assay [1] and in assay [2] were more than 10 µg/mL and 7.9 µM, respectively.

In the case of `C/C=C/[C@@H](OC(=O)[C@H](C)N(C)C)[C@H](C)[C@H](OC(C)=O)[C@H](C)/C=C/N(C)C=O`, the IC50 in assay [1] was more than 10 µg/mL; in assay [2] it was 210 µM.

Consider `CC(=O)O[C@@H]([C@@H](C)[C@@H](/C=C/CCc1ccccc1)OC(=O)[C@H](C)N(C)C)[C@H](C)/C=C/N(C)C=O`, for which the IC50 in assay [1] is more than 10 µg/mL; in assay [2], 47 µM.

For the compound `CC(=O)O[C@@H]([C@@H](C)[C@@H](/C=C/c1ccccc1)OC(=O)[C@H](C)N(C)C)[C@H](C)/C=C/N(C)C=O`, the figures for the IC50 in assay [1] and in assay [2] were more than 10 µg/mL and 85 µM, respectively.

As to `CC(=O)O[C@@H]([C@@H](C)[C@@H](/C=C/CCCCc1ccccc1)OC(=O)[C@H](C)N(C)C)[C@H](C)/C=C/N(C)C=O`, the results for the half-maximal inhibitory concentration (IC50) in assay [1] and in assay [2] were more than 10 µg/mL and 21 µM, respectively.
